Test results from US6653354B2, “NMDA antagonist comprising xenon” (priority 1999, dated 2003).
“Also recorded” adds a separate entry of the source.

Legend:
[1] = tested on: glutamatergic synapses (NMDA receptor slow component, AMPA/KA receptor fast component) of hippocampal neurons; experiment: Excitatory (glutamatergic) postsynaptic currents, voltage-clamped autaptic hippocampal neurons; type: cell-based, rat
Protocol: Hippocampal neurons were grown in culture using methods described previously (Segal M M et al, J. Neurophysiol. 1990, 64:1390-1399; Bekkers J M et al, Proc. Natl. Acad. Sci. U.S.A. 1991, 88:7834-7838; Mennerick S et al, J. Neurophysiol. 1995, 73:320-332). Briefly, hippocampi from Sprague Dawley rats (postnatal day 1-3) were dissected, roughly sliced and agitated in a papain-containing solution (20 units ml^−1) for 30 minutes at 37 EC. After washing with enzyme-free solution, the tissue was gently triturated with a fire-polished Pasteur pipette and the cells were plated out at a density of 8-10×10^4 cells ml^−1 and cultured (95% air/5% CO2) at 37° C. Glass coverslips used for culturing the cells were first coated with agarose (0.15% w/v) and then sprayed with a fine mist of poly-D-lysine (PDL) and collagen (0.1 mg ml^−1 PDL and 0.5 mg ml^−1 rat-tail collagen) from a glass micro-atomiser and sterilized by UV exposure. This produced micro-islands of permissive substrate with diameters of between 100 and 1000 μm. At 3-4 days after plating, when the glial cell layer was about 80% confluent, an anti-mitotic agent (cytosine β-D-arabinofuranoside, 5 μM) was added to arrest glial cell proliferation. Neuronal cultures were then allowed to mature for another 4-9 days. We used micro-islands which contained single isolated neurons whose axonal processes and dendritic trees formed multiple self-synapses (autapses). This procedure provided a large population of phenotypically identical monosynaptic connections.
The neurons were voltage-clamped using the whole-cell recording technique (Axopatch 200 amplifier, Axon Instruments, Foster City, Calif.). Electrodes were fabricated from borosilicate glass and typically had resistances of between 3-5 MΩ. Series resistance was compensated by 75-90%. Neurons were voltage-clamped at −60 mV, and synaptic responses were stimulated by a 2 ms depolarising pulse to +20 mV. […] For the synaptic measurements, data were sampled at 50 kHz, filtered at 20 kHz (−3 dB, 8-pole Bessel) and stored on a computer. The extracellular recording solution was (mM) 137 NaCl, 5 KCl, 3 CaCl2, 5 HEPES, 10 glucose, 0.001 glycine, 0.0001 strychnine-HCl, titrated to pH 7.3 with NaOH; and the intracellular (pipette) solution was (mM) 140 KCl, 4 NaCl, 0.5 EGTA, 2 MgATP, 10 HEPES, titrated to pH 7.25 with KOH.
Xenon solutions were prepared by first bubbling pure gases (oxygen, nitrogen or xenon) through fine sintered-glass bubblers in 250- or 500-ml Drechsel bottles filled with extracellular recording saline. […] (To minimise oxidization, the neurotoxins and neurotransmitters were excluded from the fully oxygenated saline.) During bubbling, the solutions were continually stirred at room temperature. These solutions were then mixed to achieve the desired final concentrations of the gases. Our control solutions usually contained 80% of the nitrogen solution and 20% of the oxygen solution, while our test solutions usually contained 80% of the xenon solution and 20% of the oxygen solution. Using a Bunsen water/gas partition coefficient of 0.0965 (Smith R A et al, Biochim. Biophys. Acta 1981, 645:327-338) we calculate that our standard test solution contained 3.4 mM xenon. Xenon (research grade, 99.993% pure) was supplied by BOC gases, Guildford, Surrey, UK. In all cases xenon was pre-applied to the neurons for at least 30 seconds before the initiation of synaptic currents.
In order to obtain an estimate for the total charge transfer, the EPSCs or IPSCs were numerically integrated.

rhesus monkeys = conditions: cited from earlier work
[2] = cited from earlier work
[3] = excitatory currents + 3.4 mM xenon

## [Xe] [xenon]
[1]; 3.4 mM (80%) xenon
  effect on the fast AMPA/KA receptor-mediated component: barely changes; also recorded: only a small effect
[1]; 3.4 mM xenon
  effect on the glutamatergic (excitatory) synaptic current: strongly depressed; also recorded: greatly depressed
[1]; [3]
  Decay half-time % change (means ± SEM): −22.7 ± 2.5%
  Ifast % change (means ± SEM): −4.1 ± 5.2%
  Ipeak % change (means ± SEM): −13.5 ± 1.8%
  Islow % change (means ± SEM): −70.3 ± 2.4%
  Qfast % change (means ± SEM): −11.4 ± 5.6%
  Qslow % change (means ± SEM): −68.2 ± 4.2%
  Total charge transfer % change (means ± SEM): −55.6 ± 2.7%
  τfast % change (means ± SEM): −12.3 ± 1.8%
  τslow % change (means ± SEM): −6.7 ± 6.5%
Rhesus monkeys
  gaseous concentration which prevents a response to a painful stimulus (MAC): 98 % atm
[2]; 37° C.
  Ostwald water/gas partition coefficient: 0.0887
[2]; room temperature
  Bunsen water/gas partition coefficient: 0.0965
